Results on two molecules are retold here after US12516056B2, “Compounds for inhibition of janus kinase 1” (MANKIND PHARMA LTD., priority 2019, dated 2026).

Where two headings read alike, the source gives them in different places. Some results are limits rather than exact numbers.

The subject of experiment [1] is Imiquimod induced dermatitis in mice. Kind of experiment: Mouse model of Imiquimod induced psoriasis. In kind it is in vivo, Female BALB/c mice. The conditions noted are these: 3% topical, QD; for back skin thickness / cumulative psoriasis score compared to vehicle / ear thickness: IMQ induced psoriasis, mice. As for the experimental part: Imiquimod (IMQ) induced dermatitis closely resembles human psoriasis lesions not only with regard to phenotypic and histological characteristics but also in the development of the lesions. IMQ is a ligand for toll-like receptor 7 (TLR7) and TLR8, and is a potent immune activator. […] Migration of activated dermal dendritic cells to lymph nodes in skin triggers a sequence of events leading to late phase of psoriasis. Compounds described herein are tested for JAK inhibition driven efficacy in Imiquimod induced dermatitis in mice.
Female BALB/c mice were topically dosed with 3% cream formulation containing test compounds. After four hours of test compound administration, 5% Imiquimod was applied on back skin and right ear for five days. On day 6, post dosing with test compounds, the severity of psoriasis was monitored and graded following Psoriasis Area and Severity Index (PASI). Efficacies of the compounds were evaluated based on PASI score. Redness, thickness and scaling of back skin and ear were assessed among the groups for scoring.

The target of the next experiment is T1, Recombinant JAK3 (Homo sapiens, UniProt P52333).
T1 construct: purchased Carna Biosciences
T1 sequence (P52333 1-1124): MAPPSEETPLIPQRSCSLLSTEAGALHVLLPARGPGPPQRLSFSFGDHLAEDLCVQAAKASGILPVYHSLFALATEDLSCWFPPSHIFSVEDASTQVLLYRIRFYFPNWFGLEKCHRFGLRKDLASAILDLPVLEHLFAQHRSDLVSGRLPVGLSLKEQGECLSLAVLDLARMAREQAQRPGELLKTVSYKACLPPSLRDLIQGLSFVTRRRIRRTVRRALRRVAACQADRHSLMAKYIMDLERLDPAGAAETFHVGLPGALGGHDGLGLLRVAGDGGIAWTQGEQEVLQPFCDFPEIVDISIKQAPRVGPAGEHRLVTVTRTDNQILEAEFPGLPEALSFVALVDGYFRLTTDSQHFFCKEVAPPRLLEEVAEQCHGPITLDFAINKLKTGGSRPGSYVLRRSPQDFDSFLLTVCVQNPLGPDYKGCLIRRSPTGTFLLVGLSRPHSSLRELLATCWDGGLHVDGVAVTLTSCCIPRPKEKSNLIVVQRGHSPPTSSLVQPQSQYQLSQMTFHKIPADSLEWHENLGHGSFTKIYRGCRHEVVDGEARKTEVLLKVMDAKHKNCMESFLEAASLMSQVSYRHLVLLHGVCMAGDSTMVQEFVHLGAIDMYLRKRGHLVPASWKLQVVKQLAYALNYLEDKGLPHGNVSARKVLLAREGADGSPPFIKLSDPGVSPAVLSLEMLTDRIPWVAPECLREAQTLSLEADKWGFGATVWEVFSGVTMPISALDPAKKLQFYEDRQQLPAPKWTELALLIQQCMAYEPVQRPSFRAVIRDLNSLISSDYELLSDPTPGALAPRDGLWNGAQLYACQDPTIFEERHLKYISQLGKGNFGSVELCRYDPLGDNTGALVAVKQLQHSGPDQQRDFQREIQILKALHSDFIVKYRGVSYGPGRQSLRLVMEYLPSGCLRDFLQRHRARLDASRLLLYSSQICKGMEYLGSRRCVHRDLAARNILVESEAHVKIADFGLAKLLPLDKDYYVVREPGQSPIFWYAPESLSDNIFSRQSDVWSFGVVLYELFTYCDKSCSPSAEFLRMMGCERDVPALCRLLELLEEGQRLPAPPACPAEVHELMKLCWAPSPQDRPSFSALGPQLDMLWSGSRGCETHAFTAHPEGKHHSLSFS
In words: JAK biochemical assay (LANCE Ultra TR-FRET), JAK3. An outline of the steps: (§1)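 TR-FRET read-out of ULight substrate phosphorylation by recombinant kinase gives % inhibition relative to vehicle. The assay buffer is HEPES pH 7.5 with EGTA, MgCl2, DTT and Tween-20.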
On the technique in general: In TR-FRET formats the signal depends on donor and acceptor labels being close together.

The subject of experiment [2] is STAT3 phosphorylation by IL-6 in TF-1 cells. In words: JAK cellular assay: STAT3 phosphorylation by IL-6 in TF-1 cells (HTRF). In kind it is cell-based. The following applies: Homo sapiens, TF-1, TF-1 cells. The method in brief:
(§2)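 Phospho-STAT3 (IL-6, 30 ng/ml) and phospho-STAT5 (GMCSF, 5 ng/ml) read by HTRF in lysates after 20 min cytokine exposure, minus unstimulated-cell background. Cells were serum-starved overnight, plated at 120,000/well, given compound 30 min at 37 °C beforehand; DMSO 0.2% final.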

Experiment [3] deals with STAT5 phosphorylation by GMCSF in TF-1 cells. In words: JAK cellular assay: STAT5 phosphorylation by GMCSF in TF-1 cells (HTRF). It counts as cell-based. The conditions noted are these: Homo sapiens, TF-1 cells. An outline of the steps:
as §2

Experiment [4] relates to STAT5 phosphorylation by IL-2 in HT-2 cells. Kind of experiment: STAT5 phosphorylation by IL-2 in HT-2 cells (HTRF). In kind it is cell-based. The conditions noted are these: HT2, HT-2 cells. The method in brief: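 Readout is HTRF detection of phospho-STAT5 in lysates, corrected for signal from unstimulated cells. Before lysis, HT-2 cells starved in 10% FBS medium received compound for 30 min (0.2% DMSO final, 37 °C), followed by 50 U/ml recombinant human IL-2 for 20 min.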

The target of a further experiment is T2, Recombinant JAK2 (Homo sapiens, UniProt O60674).
T2 construct: purchased Carna Biosciences
T2 sequence (O60674 whole entry): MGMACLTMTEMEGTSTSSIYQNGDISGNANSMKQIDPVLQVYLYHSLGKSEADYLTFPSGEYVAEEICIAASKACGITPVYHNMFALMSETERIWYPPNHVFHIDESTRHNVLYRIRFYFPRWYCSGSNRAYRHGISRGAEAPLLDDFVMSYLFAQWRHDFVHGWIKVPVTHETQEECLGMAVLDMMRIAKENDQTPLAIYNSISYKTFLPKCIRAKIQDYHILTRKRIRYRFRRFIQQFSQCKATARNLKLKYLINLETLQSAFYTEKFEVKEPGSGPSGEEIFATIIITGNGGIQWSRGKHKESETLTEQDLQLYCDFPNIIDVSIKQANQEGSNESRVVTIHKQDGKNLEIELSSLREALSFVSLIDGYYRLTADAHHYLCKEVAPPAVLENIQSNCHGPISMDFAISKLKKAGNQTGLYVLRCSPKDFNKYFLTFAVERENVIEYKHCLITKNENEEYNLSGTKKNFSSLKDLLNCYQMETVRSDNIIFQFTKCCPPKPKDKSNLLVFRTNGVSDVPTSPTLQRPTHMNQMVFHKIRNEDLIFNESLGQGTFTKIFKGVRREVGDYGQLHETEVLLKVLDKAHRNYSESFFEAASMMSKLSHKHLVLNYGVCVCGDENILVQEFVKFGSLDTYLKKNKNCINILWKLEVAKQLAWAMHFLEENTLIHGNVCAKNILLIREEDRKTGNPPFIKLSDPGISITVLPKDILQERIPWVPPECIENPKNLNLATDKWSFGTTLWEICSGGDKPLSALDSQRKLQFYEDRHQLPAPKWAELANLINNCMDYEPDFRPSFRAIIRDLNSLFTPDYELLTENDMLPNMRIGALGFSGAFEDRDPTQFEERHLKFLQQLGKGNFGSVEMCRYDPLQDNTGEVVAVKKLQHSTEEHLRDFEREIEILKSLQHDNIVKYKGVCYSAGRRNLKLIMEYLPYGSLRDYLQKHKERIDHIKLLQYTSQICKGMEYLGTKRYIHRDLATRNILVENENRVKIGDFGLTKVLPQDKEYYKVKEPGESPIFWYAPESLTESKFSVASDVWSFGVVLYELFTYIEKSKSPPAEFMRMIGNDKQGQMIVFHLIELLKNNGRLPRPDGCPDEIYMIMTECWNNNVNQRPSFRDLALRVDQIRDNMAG
In words: JAK biochemical assay (LANCE Ultra TR-FRET), JAK2. The method in brief: as §1

[5] abbreviates: read-out: Biochemical IC50 (nM) JAK3.
Where [6] appears, read: IL-6 30 ng/ml, pSTAT3 HTRF, read-out: Cell Based Assay (μM) TF-1/IL-6/pSTAT3.
Setting [7] is: IL-6 stimulation, read-out: Cell based IC50 (μM) TF-1/IL-6.
[8] abbreviates: GM-CSF stimulation, read-out: Cell based IC50 (μM) TF-1/GM-CSF.
Where [9] appears, read: IL-2 50 U/ml, pSTAT5 HTRF, read-out: Cell Based Assay (μM) HT-2/IL-2/pSTAT5.
The mark [10] stands for this setting: IL-2 stimulation, read-out: Cell based IC50 (μM) HT-2/IL-2.
The mark [11] stands for this setting: read-out: Biochemical IC50 (nM) JAK2.

`CC(C)NC(=O)CC[C@@H](c1ccc(-n2cc(-c3ccnc4[nH]cnc34)cn2)nc1)C(F)(F)F` [Example 1215, (S)-4-(6-(4-(3H-imidazo[4,5-b]pyridin-7-yl)-1H-pyrazol-1-yl)pyridin-3-yl)-5,5,5-trifluoro-N-isopropylpentanamide]: the “efficacy compared to 1133 and reference compound filgotinib (psoriasis model)” value in experiment [1] is recorded as “better efficacy”. For the same molecule, in experiment [1], the back skin thickness entry is on record as “significant decrease”. Also, in experiment [1], the “cumulative psoriasis score compared to vehicle” value is on record as “statistically significant decrease”. The ear thickness result in experiment [1] is listed as “significant decrease”. For the same molecule, the IC50 at Recombinant JAK3 (setting [5]) was 11 nM; on Recombinant JAK3 (recombinant JAK3, TR-FRET, read-out: Biochemical Assay (μM) JAK3), under 100 nM; in experiment [2] (setting [6]), 0.32 µM; in experiment [2] (setting [7]), 0.3 µM; in experiment [3] (setting [8]) it was over 10 µM; in experiment [4] (setting [9]), 0.75 µM. In addition, the IC50 in experiment [4] (setting [10]) is 0.7 µM; at Recombinant JAK2 (setting [11]), 40 nM; on Recombinant JAK2 (recombinant JAK2, TR-FRET, read-out: Biochemical Assay (μM) JAK2), under 100 nM.
`CN1CCC(C(O)(c2ccc(-n3cc(-c4ccnc5[nH]cnc45)cn3)nc2)C(F)(F)F)CC1` (stereo not drawn) [Example 1133, 1-(6-(4-(3H-imidazo[4,5-b]pyridin-7-yl)-1H-pyrazol-1-yl)pyridin-3-yl)-2,2,2-trifluoro-1-(1-methylpiperidin-4-yl)ethanol]: in experiment [1], the back skin thickness result is on record as “significant decrease”. Also, in experiment [1], the “cumulative psoriasis score compared to vehicle” value is “statistically significant decrease”. The ear thickness entry in experiment [1] is given as “significant decrease”. Also, the IC50 at Recombinant JAK3 (setting [5]) is 100 nM; in experiment [2] (setting [6]), 0.6 µM; in experiment [2] (setting [7]), 0.6 µM; in experiment [3] (setting [8]), over 10 µM; in experiment [3] (GMCSF 5 ng/ml, pSTAT5 HTRF, read-out: Cell Based Assay (μM) TF-1/GMCSF/pSTAT5), over 10 µM; in experiment [4] (setting [9]) it was 2.3 µM. The IC50 in experiment [4] (setting [10]) is 2.3 µM; at Recombinant JAK2 (setting [11]), 152 nM.
